Read-outs that look alike come from different tables or passages of the source.
Columns and labels:
[1] = molecular target: T1, Recombinant human PI3Kγ (full length human PI3K p110γ) (Homo sapiens, UniProt P48736); assay: Kinase assay of PI3Kγ (solid-phase lipid kinase assay); format: biochemical
T1 construct: full length human PI3K p110γ fused with a His6-tag at the C-terminus; His6 (C); purchased ALEXIS BIOCHEMICALS #201-055-C010; host or cells: S. frugiperda 9 insect cells

[2] = Table 1, isozyme not given, read-out: in vitro
[3] = in vitro PI3K-γ inhibitory activity, class symbols, read-out: in vitro PI3K-gamma
[4] = in vitro PI3K-γ inhibitory activity, class symbols A-D, read-out: in vitro PI3K-gamma

T1 sequence (P48736 whole entry, the tested form may be a part): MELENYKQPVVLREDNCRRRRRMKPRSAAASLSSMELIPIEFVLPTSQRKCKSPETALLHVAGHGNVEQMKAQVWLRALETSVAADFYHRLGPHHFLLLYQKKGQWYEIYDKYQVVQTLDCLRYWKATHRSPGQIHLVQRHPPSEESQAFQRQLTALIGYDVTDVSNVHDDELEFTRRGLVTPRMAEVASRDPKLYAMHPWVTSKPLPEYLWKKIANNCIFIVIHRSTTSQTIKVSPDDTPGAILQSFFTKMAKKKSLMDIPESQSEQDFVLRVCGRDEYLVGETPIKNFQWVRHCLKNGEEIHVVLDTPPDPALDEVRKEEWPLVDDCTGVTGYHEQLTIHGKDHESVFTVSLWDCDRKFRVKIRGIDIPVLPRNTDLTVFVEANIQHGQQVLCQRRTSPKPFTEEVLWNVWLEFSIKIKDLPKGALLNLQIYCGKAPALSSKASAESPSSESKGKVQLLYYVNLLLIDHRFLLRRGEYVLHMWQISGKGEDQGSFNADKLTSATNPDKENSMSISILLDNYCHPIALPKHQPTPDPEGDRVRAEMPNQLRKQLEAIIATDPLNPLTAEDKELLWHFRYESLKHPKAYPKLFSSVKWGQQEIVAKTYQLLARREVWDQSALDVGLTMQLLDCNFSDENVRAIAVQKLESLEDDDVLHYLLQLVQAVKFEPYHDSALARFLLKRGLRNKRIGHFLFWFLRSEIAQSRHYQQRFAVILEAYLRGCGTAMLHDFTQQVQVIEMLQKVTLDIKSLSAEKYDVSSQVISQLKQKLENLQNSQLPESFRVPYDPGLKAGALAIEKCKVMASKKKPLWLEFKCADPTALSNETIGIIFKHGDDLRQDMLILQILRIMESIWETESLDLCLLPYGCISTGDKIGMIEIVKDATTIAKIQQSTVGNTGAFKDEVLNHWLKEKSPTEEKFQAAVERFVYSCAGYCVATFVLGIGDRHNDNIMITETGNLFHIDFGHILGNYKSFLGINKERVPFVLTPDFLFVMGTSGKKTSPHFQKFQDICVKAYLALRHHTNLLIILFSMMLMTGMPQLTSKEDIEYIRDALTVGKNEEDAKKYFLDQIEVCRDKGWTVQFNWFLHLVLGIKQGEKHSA

SMILES	melting point	IC50 [1, 2] [nM]	IC50 [1, 3] [nM]	IC50 [1, 4] [nM]
COc1cc2c(c(OC)c1C)N=C(/C=C(\O)c1ccc(NC(C)=O)nc1)N1CCN=C21 [Example 1-64]	> 285 °C	< 100	–	–
O/C(=C\C1=Nc2ccncc2C2=NCCN12)c1cccnc1 [Example 1-165]	250 °C	100 to 500	–	–
COc1c(OC(C)C)ccc2c1N=C(/C=C(\O)c1cccnc1)N1CCN=C21 [Example 1-14]	252 to 253 °C	< 100	–	–
O/C(=C\C1=Nc2cc(N3CCOCC3)ccc2C2=NCCN12)c1ccc2[nH]cnc2c1 [Example 1-100]	232 °C	< 100	–	–
O/C(=C\C1=Nc2ccccc2C2=NCCN12)c1cc[nH]c1 [Example 1-151]	247 to 249 °C	< 100	–	–
CN(C)c1ccc(C(=O)NC2=Nc3ccccc3C3=NCCN23)cc1.O=C(O)C(F)(F)F [Example 2-260]	240 °C (dec.)	–	–	> 2000
COc1cccc2c1N=C(/C=C(\O)c1cccnc1)N1CCN=C21 [Example 1-68]	275 °C	< 100	–	–
O/C(=C\C1=Nc2ccc(Cl)cc2C2=NCCN12)c1cccnc1 [Example 1-189]	260 °C	500 to 2000	–	–
O=[N+]([O-])c1ccc2c(c1)C1=NCCN1C(/C=C(\O)c1ccccc1)=N2 [Example 1-191]	259 to 262 °C	> 2000	–	–
CC(=O)Oc1cccc2c1N=C(/C=C(\O)c1cccnc1)N1CCN=C21 [Example 1-93]	225 to 226 °C	100 to 500	–	–
COc1cc2c(cc1OC)C1=NCCN1C(/C=C(\O)c1ccc(C)nc1)=N2 [Example 1-49]	200 to 204 °C	< 100	–	–
COc1c(OCC(N)=O)ccc2c1N=C(/C=C(\O)c1cccnc1)N1CCN=C21 [Example 1-23]	297 to 298 °C	< 100	–	–
O/C(=C\C1=Nc2c(Cl)cccc2C2=NCCN12)c1cccnc1 [Example 1-72]	210 °C (dec.)	100 to 500	–	–
Cc1nc(NC(=O)OC(C)(C)C)sc1/C(O)=C/C1=Nc2ccccc2C2=NCCN12 [Example 1-179]	> 300 °C	> 2000	–	–
O/C(=C\C1=Nc2ccccc2C2=NCCN12)c1cccc(Cl)c1 [Example 1-171]	224 to 227 °C	> 2000	–	–
COc1cc2c(cc1OC)C1=NCCN1C(/C=C(\O)c1ccc(NCCO)nc1)=N2 [Example 1-54]	207 °C	100 to 500	–	–
CN1CCN(c2ccc3c(c2)N=C(/C=C(\O)c2cccnc2)N2CCN=C32)CC1.Cl [Example 1-104]	288 °C	100 to 500	–	–
O/C(=C\C1=Nc2ccccc2C2=NCCN12)c1ccco1 [Example 1-143]	192 °C	100 to 500	–	–
O=C(NC1=Nc2ccccc2C2=NCCN12)c1cccnc1.O=C(O)C(F)(F)F [Example 2-130]	237 to 239 °C	–	< 100	–
CN(C)CCCOc1cccc2c1N=C(/C=C(\O)c1cccnc1)N1CCN=C21 [Example 1-87]	235 °C (dec.)	100 to 500	–	–
O/C(=C\C1=Nc2c(OCC3CC3)cccc2C2=NCCN12)c1cccnc1 [Example 1-88]	203 °C (dec.)	100 to 500	–	–
COc1ccc2c(c1OCCN1CCOCC1)N=C(/C=C(\O)c1ccc(NC(C)=O)nc1)N1CCN=C21.Cl [Example 1-38]	260 °C	< 100	–	–
O=[N+]([O-])c1cccc(/C(O)=C/C2=Nc3ccccc3C3=NCCN23)c1 [Example 1-167]	276 °C	> 2000	–	–
CNC(=O)COc1ccc2c(c1OC)N=C(/C=C(\O)c1cccnc1)N1CCN=C21.Cl [Example 1-25]	240 °C (dec.)	< 100	–	–
COc1cc2c(cc1OC)C1=NCCN1C(/C=C(\O)c1ccc(NC(C)=O)nc1)=N2.Cl [Example 1-51]	275 to 280 °C	100 to 500	–	–
Cl.O/C(=C\C1=Nc2ccc(Br)cc2C2=NCCN12)c1cccnc1 [Example 1-129]	> 300 °C	100 to 500	–	–

The next lines start with the values.

melting point	IC50 [1, 2] [nM]	IC50 [1, 3] [nM]	IC50 [1, 4] [nM]	SMILES
248 °C	–	100 to 500	–	COc1cc2c(cc1OC)C1=NCCN1C(NC(=O)c1cccs1)=N2 [Example 2-62]
> 280 °C	–	< 100	–	CC(=O)Nc1ccc(C(=O)NC2=Nc3c(Cl)cccc3C3=NCCN23)cn1.Cl [Example 2-105]
128 to 129 °C	–	–	500 to 2000	Cn1cccc1C(=O)NC1=Nc2ccccc2C2=NCCN12 [Example 2-296]
305 °C (dec.)	–	100 to 500	–	Cl.O=C(NC1=Nc2ccc(Cl)cc2C2=NCCN12)c1ccc2[nH]cnc2c1 [Example 2-86]
194 to 195 °C	–	100 to 500	–	Cc1ccncc1C(=O)NC1=Nc2ccccc2C2=NCCN12 [Example 2-136]
230 to 240 °C	–	–	> 2000	CCC(C)[C@H]1CN2C(NC(=O)c3cccnc3)=Nc3ccccc3C2=N1.Cl (some centres unmarked) [Example 2-364]
296 °C	–	< 100	–	COc1cccc2c1N=C(NC(=O)c1ccc(N)nc1)N1CCN=C21.Cl [Example 2-123]
170 to 172 °C	–	–	> 2000	O=C(NC1=Nc2ccccc2C2=NCCN12)C1CCCCC1 [Example 2-335]
243 °C (dec.)	–	100 to 500	–	Cc1nc(C)c(C(=O)NC2=Nc3ccccc3C3=NCCN23)s1 [Example 2-189]
324 °C (dec.)	–	100 to 500	–	Cl.O=C(NC1=Nc2ccccc2C2=NCCN12)c1ccc(Cl)nc1 [Example 2-155]
227 °C	–	–	500 to 2000	Cl.O=C(NC1=Nc2cccc(Cl)c2C2=NCCN12)c1cccs1 [Example 2-359]
> 290 °C	–	100 to 500	–	Cc1ccc2c(c1)C1=NCCN1C(NC(=O)c1cccnc1)=N2.Cl [Example 2-91]
217 to 218 °C	–	100 to 500	–	O=C(NC1=Nc2ccccc2C2=NCCN12)c1ccoc1 [Example 2-185]
240 °C (dec.)	–	–	< 100	COc1ccc2c(c1OC)N=C(NC(=O)c1cncc(O)c1)N1CCN=C21.Cl [Example 2-368]
278 °C (dec.)	–	–	> 2000	CS(=O)(=O)c1ccc(C(=O)NC2=Nc3ccccc3C3=NCCN23)cc1 [Example 2-245]
286 °C (dec.)	–	100 to 500	–	COc1cc(OC)c2c(c1)C1=NCCN1C(NC(=O)c1ccc(NC(C)=O)nc1)=N2 [Example 2-70]
104 to 105 °C	–	–	> 2000	CC(C)C(=O)NC1=Nc2ccccc2C2=NCCN12 [Example 2-330]
285 °C (dec.)	–	< 100	–	COc1cccc2c1N=C(NC(=O)c1cncc(O)c1)N1CCN=C21.Cl [Example 2-122]
286 to 287 °C	–	–	> 2000	O=C(NC1=Nc2ccccc2C2=NCCN12)c1ccc([N+](=O)[O-])s1 [Example 2-303]

melting point	IC50 [1, 2] [nM]	IC50 [1, 3] [nM]	IC50 [1, 4] [nM]	SMILES
279 to 282 °C	–	< 100	–	COc1ccc2c(c1)N=C(NC(=O)c1ccc(N)nc1)N1CCN=C21 [Example 2-23]
135 to 136 °C	–	–	> 2000	CC(C)(C)C(=O)NC1=Nc2ccccc2C2=NCCN12 [Example 2-331]
344 °C (dec.)	–	–	100 to 500	Cc1nc2cc(C(=O)NC3=Nc4ccccc4C4=NCCN34)ccc2[nH]1.Cl [Example 2-308]
250 to 253 °C	–	–	> 2000	CC(C)n1c(C(F)(F)F)nc2cc(C(=O)NC3=Nc4ccccc4C4=NCCN34)ccc21 [Example 2-309]
263 to 264 °C	–	–	> 2000	O=C(NC1=Nc2ccccc2C2=NCCN12)c1cnc2ccccc2c1 [Example 2-316]
167 to 168 °C	–	–	> 2000	COc1ccc(CC(=O)NC2=Nc3ccccc3C3=NCCN23)cc1 [Example 2-323]
270 °C (dec.)	–	–	> 2000	C[C@@H]1CN=C2c3ccccc3N=C(NC(=O)c3cccnc3)N21.Cl [Example 2-366]
122 to 123 °C	–	–	> 2000	O=C(Cc1cccs1)NC1=Nc2ccccc2C2=NCCN12 [Example 2-324]
224 °C	–	100 to 500	–	COc1cc2c(cc1OC)C1=NCCN1C(NC(=O)c1ccc(NC(C)=O)nc1)=N2 [Example 2-57]
270 °C (dec.)	–	100 to 500	–	COc1cc2c(cc1OC)C1=NCCN1C(NC(=O)c1cn[nH]c1)=N2.Cl [Example 2-63]
274 °C (dec.)	–	–	> 2000	Cl.NC(=O)C1CN2C(NC(=O)c3cccnc3)=Nc3ccccc3C2=N1 (centres unmarked) [Example 2-365]
186 °C	–	< 100	–	COc1ccc2c(c1)N=C(NC(=O)c1ccc3[nH]cnc3c1)N1CCN=C21 [Example 2-25]
281 °C (dec.)	–	100 to 500	–	COc1ccc2c(c1)N=C(NC(=O)c1cccnc1)N1CCN=C21 [Example 2-20]
249 °C	–	100 to 500	–	CC(=O)Nc1ccc(C(=O)NC2=Nc3cc(N4CCOCC4)ccc3C3=NCCN23)cc1.Cl [Example 2-9]
233 to 234 °C	–	–	> 2000	CSc1ncccc1C(=O)NC1=Nc2ccccc2C2=NCCN12 [Example 2-288]
201 to 203 °C (dec.)	–	–	500 to 2000	O=C(NC1=Nc2ccccc2C2=NCCN12)c1ccccc1 [Example 2-214]
288 °C	–	100 to 500	–	Cl.O=C(NC1=Nc2ccc(Br)cc2C2=NCCN12)c1ccc2[nH]cnc2c1 [Example 2-89]
264 °C	–	< 100	–	COc1ccc2c(c1Br)N=C(NC(=O)c1cccnc1)N1CCN=C21 [Example 2-65]
303 to 305 °C	–	–	> 2000	O=C(NC1=Nc2ccccc2C2=NCCN12)c1ccc2ncsc2c1 [Example 2-312]

Reference: patent publication US7511041B2, “Fused azole-pyrimidine derivatives” (Bayer Pharmaceuticals Corporation, priority 2002, dated 2009)
